{"source": "paper PMC5218480", "about": "(PLoS ONE, 2017)", "test_system": "MV-4-11 cells", "assay": "Gene expression microarray analysis (Affymetrix PrimeView) and GSEA", "format": "cell-based, human", "set-up": "RFU PODN (11730768_x_at) / Fold change /veh PODN (11730768_x_at) / RFU LINC00158 (11744669_a_at) / Fold change /veh LINC00158 (11744669_a_at) / RFU DUSP10 (11751237_a_at) / Fold change /veh DUSP10 (11751237_a_at) / RFU ID3 (11757404_x_at) / Fold change /veh ID3 (11757404_x_at) / RFU PLEKHG5 (11737974_s_at) / Fold change /veh PLEKHG5 (11737974_s_at) / RFU LRRC4B (11730491_at) / Fold change /veh LRRC4B (11730491_at) / RFU GIMAP4 (11747438_a_at) / Fold change /veh GIMAP4 (11747438_a_at) / RFU KRT8 (11758183_x_at) / Fold change /veh KRT8 (11758183_x_at) / RFU CNN1 (11734310_a_at) / Fold change /veh CNN1 (11734310_a_at) / RFU VPS37D (11726825_at) / Fold change /veh VPS37D (11726825_at) / RFU C10orf10 (11716522_x_at) / Fold change /veh C10orf10 (11716522_x_at) / RFU KIR2DL2 /// KIR2DL4 /// KIR2DL5A /// KIR2DL5B /// KIR2DS1 /// KIR2DS2 /// KIR2DS3 /// KIR2DS4 /// KIR3DL3 /// KIR3DL3 /// KIR3DS1 (11738374_at) / Fold change /veh KIR2DL2 /// KIR2DL4 /// KIR2DL5A /// KIR2DL5B /// KIR2DS1 /// KIR2DS2 /// KIR2DS3 /// KIR2DS4 /// KIR3DL3 /// KIR3DL3 /// KIR3DS1 (11738374_at) / RFU C1QL1 (11718748_at) / Fold change /veh C1QL1 (11718748_at) / RFU TMPRSS4 (11747572_a_at) / Fold change /veh TMPRSS4 (11747572_a_at) / RFU HAMP (11756126_x_at) / Fold change /veh HAMP (11756126_x_at) / RFU RNFT2 (11725882_a_at) / Fold change /veh RNFT2 (11725882_a_at) / RFU NR4A2 (11747474_a_at) / Fold change /veh NR4A2 (11747474_a_at) / RFU ABCC12 (11746883_a_at) / Fold change /veh ABCC12 (11746883_a_at) / RFU TMEM136 (11760407_x_at) / Fold change /veh TMEM136 (11760407_x_at) / RFU CLDN22 /// WWC2 (11732394_at) / Fold change /veh CLDN22 /// WWC2 (11732394_at) / RFU HLA-DPB1 (11760878_x_at) / Fold change /veh HLA-DPB1 (11760878_x_at) / RFU SPINT1 (11716480_a_at) / Fold change /veh SPINT1 (11716480_a_at) / RFU GAP43 (11754022_s_at) / Fold change /veh GAP43 (11754022_s_at) / RFU A4GNT (11735810_at) / Fold change /veh A4GNT (11735810_at) / RFU PRB3 (11715151_x_at) / Fold change /veh PRB3 (11715151_x_at) / RFU TUBB4B (11761932_at) / Fold change /veh TUBB4B (11761932_at) / RFU CAPN14 (11732068_a_at) / Fold change /veh CAPN14 (11732068_a_at) / RFU TMCC2 (11721928_a_at) / Fold change /veh TMCC2 (11721928_a_at) / RFU IRGQ (11745062_a_at) / Fold change /veh IRGQ (11745062_a_at) / RFU FAM174B (11720279_a_at) / Fold change /veh FAM174B (11720279_a_at) / RFU TMPRSS4 (11748680_a_at) / Fold change /veh TMPRSS4 (11748680_a_at) / RFU FAM212B (11763350_a_at) / Fold change /veh FAM212B (11763350_a_at) / RFU PLEKHG5 (11743358_a_at) / Fold change /veh PLEKHG5 (11743358_a_at) / RFU ZSCAN30 (11745921_a_at) / Fold change /veh ZSCAN30 (11745921_a_at) / RFU CMKLR1 (11741424_a_at) / Fold change /veh CMKLR1 (11741424_a_at) / RFU LOC101060620 /// MAPK8IP1 (11723275_at) / Fold change /veh LOC101060620 /// MAPK8IP1 (11723275_at) / RFU SPTSSB (11747773_x_at) / Fold change /veh SPTSSB (11747773_x_at) / RFU PRSS12 (11739890_at) / Fold change /veh PRSS12 (11739890_at) / RFU BIN1 (11741810_x_at) / Fold change /veh BIN1 (11741810_x_at) / RFU WNT11 (11732464_a_at) / Fold change /veh WNT11 (11732464_a_at) / RFU C10orf10 (11716521_a_at) / Fold change /veh C10orf10 (11716521_a_at) / RFU C5orf56 (11738089_at) / Fold change /veh C5orf56 (11738089_at) / RFU CYB561 (11721691_x_at) / Fold change /veh CYB561 (11721691_x_at) / RFU ANKRD19P (11752326_a_at) / Fold change /veh ANKRD19P (11752326_a_at) / RFU OR2T12 /// OR2T33 /// OR2T8 (11738714_s_at) / Fold change /veh OR2T12 /// OR2T33 /// OR2T8 (11738714_s_at) / RFU VCAN (11748164_a_at) / Fold change /veh VCAN (11748164_a_at) / RFU JSRP1 (11732532_at) / Fold change /veh JSRP1 (11732532_at) / RFU KRTAP10-11 (11738290_x_at) / Fold change /veh KRTAP10-11 (11738290_x_at) / RFU MYO3A (11730013_a_at) / Fold change /veh MYO3A (11730013_a_at) / RFU EBF3 (11725865_a_at) / Fold change /veh EBF3 (11725865_a_at) / RFU CAMK2N1 (11719241_x_at) / Fold change /veh CAMK2N1 (11719241_x_at) / RFU C5orf56 (11738088_a_at) / Fold change /veh C5orf56 (11738088_a_at) / RFU OLFML3 (11715873_a_at) / Fold change /veh OLFML3 (11715873_a_at) / RFU LOC100653217 /// NTM (11731650_a_at) / Fold change /veh LOC100653217 /// NTM (11731650_a_at) / RFU MAPK11 (11762145_a_at) / Fold change /veh MAPK11 (11762145_a_at) / RFU FIZ1 (11724087_x_at) / Fold change /veh FIZ1 (11724087_x_at) / RFU OASL (11726364_x_at) / Fold change /veh OASL (11726364_x_at) / RFU SOX15 (11748057_x_at) / Fold change /veh SOX15 (11748057_x_at) / RFU CD79A (11719716_a_at) / Fold change /veh CD79A (11719716_a_at) / RFU HIST1H1D (11736915_at) / Fold change /veh HIST1H1D (11736915_at) / RFU CASKIN2 (11723855_a_at) / Fold change /veh CASKIN2 (11723855_a_at) / RFU LOC730098 (11760151_x_at) / Fold change /veh LOC730098 (11760151_x_at) / RFU OR4N2 (11742367_at) / Fold change /veh OR4N2 (11742367_at) / RFU PRRT2 (11749266_a_at) / Fold change /veh PRRT2 (11749266_a_at) / RFU SNX32 (11753110_a_at) / Fold change /veh SNX32 (11753110_a_at) / RFU CDHR5 (11726645_a_at) / Fold change /veh CDHR5 (11726645_a_at) / RFU RCAN1 (11760418_a_at) / Fold change /veh RCAN1 (11760418_a_at) / RFU FAM167A (11723789_a_at) / Fold change /veh FAM167A (11723789_a_at) / RFU FAM26E (11764081_at) / Fold change /veh FAM26E (11764081_at) / RFU ISYNA1 (11749810_s_at) / Fold change /veh ISYNA1 (11749810_s_at) / RFU ACY1 (11761880_at) / Fold change /veh ACY1 (11761880_at) / RFU 11764098_at / Fold change /veh 11764098_at / RFU SAMD14 (11745864_x_at) / Fold change /veh SAMD14 (11745864_x_at) / RFU NPB (11741838_a_at) / Fold change /veh NPB (11741838_a_at) / RFU TMPRSS6 (11731388_a_at) / Fold change /veh TMPRSS6 (11731388_a_at) / RFU KRTAP10-2 (11738614_at) / Fold change /veh KRTAP10-2 (11738614_at) / RFU ARHGAP8 /// PRR5-ARHGAP8 (11727945_x_at) / Fold change /veh ARHGAP8 /// PRR5-ARHGAP8 (11727945_x_at) / RFU KRTAP5-7 /// NADSYN1 (11734609_at) / Fold change /veh KRTAP5-7 /// NADSYN1 (11734609_at) / RFU RASL12 (11751679_a_at) / Fold change /veh RASL12 (11751679_a_at) / RFU CDKN2B (11736163_a_at) / Fold change /veh CDKN2B (11736163_a_at) / RFU PRF1 (11729649_at) / Fold change /veh PRF1 (11729649_at) / RFU, ZNF638 /// ZNF638-IT1 / Fold change vs veh, ZNF638 /// ZNF638-IT1 / RFU, PANK3 / Fold change vs veh, PANK3 / RFU, SH3YL1 / Fold change vs veh, SH3YL1 / RFU, ZEB2 / Fold change vs veh, ZEB2 / RFU, NRIP1 / Fold change vs veh, NRIP1 / RFU, PTTG1IP / Fold change vs veh, PTTG1IP / RFU, CAPN2 / Fold change vs veh, CAPN2 / RFU, MED14 / Fold change vs veh, MED14 / RFU, SNORA58 / Fold change vs veh, SNORA58 / RFU, C1orf63 / Fold change vs veh, C1orf63 / RFU, LRRFIP1 / Fold change vs veh, LRRFIP1 / RFU, NDUFAF7 / Fold change vs veh, NDUFAF7 / RFU, SLC12A2 / Fold change vs veh, SLC12A2 / RFU, IBTK / Fold change vs veh, IBTK / RFU, ESF1 / Fold change vs veh, ESF1 / Fold change vs veh, TMEM50B / RFU, TAOK1 / Fold change vs veh, TAOK1 / RFU, ACBD3 / Fold change vs veh, ACBD3 / RFU, TMA16 / Fold change vs veh, TMA16 / RFU, RWDD3 / Fold change vs veh, RWDD3 / RFU, BCAT1 / Fold change vs veh, BCAT1 / RFU, EDEM3 / Fold change vs veh, EDEM3 / RFU, TMEM33 / Fold change vs veh, TMEM33 / RFU, WDR75 / Fold change vs veh, WDR75 / RFU, AHCTF1 / Fold change vs veh, AHCTF1 / RFU, TFRC / Fold change vs veh, TFRC / RFU, ZDHHC17 / Fold change vs veh, ZDHHC17 / RFU, NOM1 / Fold change vs veh, NOM1 / RFU, ARL8B / Fold change vs veh, ARL8B / RFU, ZBTB11 / Fold change vs veh, ZBTB11 / RFU, TAMM41 / Fold change vs veh, TAMM41 / RFU, KIAA1704 /// LOC100996395 / Fold change vs veh, KIAA1704 /// LOC100996395 / RFU, ING1 / Fold change vs veh, ING1 / RFU, TRMT61B / Fold change vs veh, TRMT61B / RFU, FUBP3 / Fold change vs veh, FUBP3 / RFU, TP53 / Fold change vs veh, TP53 / RFU, TNKS2 / Fold change vs veh, TNKS2 / RFU, ZFP14 / Fold change vs veh, ZFP14 / RFU, ACTR2 / Fold change vs veh, ACTR2 / RFU, PPP3R1 / Fold change vs veh, PPP3R1 / RFU, PIK3R1 / Fold change vs veh, PIK3R1 / RFU, HNRNPA1 / Fold change vs veh, HNRNPA1 / RFU, RNF170 / Fold change vs veh, RNF170 / RFU, ZNF28 / Fold change vs veh, ZNF28 / RFU, RNGTT / Fold change vs veh, RNGTT / RFU, OGT / Fold change vs veh, OGT / RFU, BRD1 / Fold change vs veh, BRD1 / RFU, MARS / Fold change vs veh, MARS / RFU, ZNF655 / Fold change vs veh, ZNF655 / RFU, FAHD1 / Fold change vs veh, FAHD1 / RFU, BDP1 / Fold change vs veh, BDP1 / RFU, LRRCC1 / Fold change vs veh, LRRCC1 / RFU, ARID1A / Fold change vs veh, ARID1A / RFU, ZNF146 / Fold change vs veh, ZNF146 / RFU, ZNF330 / Fold change vs veh, ZNF330 / RFU, GPN3 / Fold change vs veh, GPN3 / RFU, C9orf123 / Fold change vs veh, C9orf123 / RFU, N4BP2L2 / Fold change vs veh, N4BP2L2 / RFU, ARFIP1 / Fold change vs veh, ARFIP1 / RFU, FAM179B / Fold change vs veh, FAM179B / RFU, BCL10 / Fold change vs veh, BCL10 / RFU, UHRF1BP1L / Fold change vs veh, UHRF1BP1L / RFU, BET1 / Fold change vs veh, BET1 / RFU, CNOT2 / Fold change vs veh, CNOT2 / RFU, ZNF268 / Fold change vs veh, ZNF268 / Fold change vs veh, ZNF507 / RFU, DGCR2 / Fold change vs veh, DGCR2 / RFU, WDSUB1 / Fold change vs veh, WDSUB1 / Fold change vs veh, HSP90B1 /// MIR3652 / RFU, ADSS / Fold change vs veh, ADSS / RFU, GK / Fold change vs veh, GK / RFU, ZNF148 / Fold change vs veh, ZNF148 / RFU, TAF9 / Fold change vs veh, TAF9 / RFU, SLC1A5 / Fold change vs veh, SLC1A5 / RFU, SLMO2 / Fold change vs veh, SLMO2 / RFU, ABCC4 / Fold change vs veh, ABCC4 / RFU, LOC101060439 /// RAP1B / Fold change vs veh, LOC101060439 /// RAP1B / RFU, RFX7 / Fold change vs veh, RFX7 / RFU, GTPBP10 / Fold change vs veh, GTPBP10 / RFU, CNEP1R1 / Fold change vs veh, CNEP1R1 / RFU, BIVM-ERCC5 /// ERCC5 / Fold change vs veh, BIVM-ERCC5 /// ERCC5 / RFU, ILF3 / Fold change vs veh, ILF3 / RFU 11762660_at / Fold change /veh 11762660_at / RFU VCAN (11757783_s_at) / Fold change /veh VCAN (11757783_s_at) / RFU DDX43 (11728927_at) / Fold change /veh DDX43 (11728927_at) / RFU KRT8 (11758188_x_at) / Fold change /veh KRT8 (11758188_x_at) / RFU NKD1 (11759106_at) / Fold change /veh NKD1 (11759106_at) / RFU SRD5A1 (11742802_a_at) / Fold change /veh SRD5A1 (11742802_a_at) / RFU TPSAB1 /// TPSB2 (11721975_s_at) / Fold change /veh TPSAB1 /// TPSB2 (11721975_s_at) / RFU GSTM3 (11746129_a_at) / Fold change /veh GSTM3 (11746129_a_at) / RFU IL23R (11737362_x_at) / Fold change /veh IL23R (11737362_x_at) / RFU TMEM51 (11727254_a_at) / Fold change /veh TMEM51 (11727254_a_at) / RFU PIWIL2 (11732686_x_at) / Fold change /veh PIWIL2 (11732686_x_at) / RFU ORM1 (11744905_x_at) / Fold change /veh ORM1 (11744905_x_at) / RFU CCDC152 (11743942_at) / Fold change /veh CCDC152 (11743942_at) / RFU ECM1 (11717891_a_at) / Fold change /veh ECM1 (11717891_a_at) / RFU IL23R (11748794_a_at) / Fold change /veh IL23R (11748794_a_at) / RFU TNFAIP8L3 (11732012_x_at) / Fold change /veh TNFAIP8L3 (11732012_x_at) / RFU MBOAT4 (11741988_at) / Fold change /veh MBOAT4 (11741988_at) / RFU 11764193_at / Fold change /veh 11764193_at / RFU TMEM53 (11763286_at) / Fold change /veh TMEM53 (11763286_at) / RFU MAGEB2 (11727129_at) / Fold change /veh MAGEB2 (11727129_at) / RFU TMEM200A (11744735_a_at) / Fold change /veh TMEM200A (11744735_a_at) / RFU CCDC152 (11751479_a_at) / Fold change /veh CCDC152 (11751479_a_at) / RFU FAM211A (11726209_a_at) / Fold change /veh FAM211A (11726209_a_at) / RFU RGS16 (11746705_a_at) / Fold change /veh RGS16 (11746705_a_at) / RFU VCAN (11755009_s_at) / Fold change /veh VCAN (11755009_s_at) / RFU RHOB (11743442_s_at) / Fold change /veh RHOB (11743442_s_at) / RFU RGS16 (11720943_a_at) / Fold change /veh RGS16 (11720943_a_at) / RFU RGS16 (11720944_at) / Fold change /veh RGS16 (11720944_at) / RFU, VPS4B / Fold change vs veh, VPS4B / RFU, CREB1 / Fold change vs veh, CREB1 / RFU, DNAJC13 / Fold change vs veh, DNAJC13 / RFU, GNAQ / Fold change vs veh, GNAQ / RFU, CDK5R1 / Fold change vs veh, CDK5R1 / RFU, ZRANB3 / Fold change vs veh, ZRANB3 / RFU, CUL4A / Fold change vs veh, CUL4A / RFU, CCNY / Fold change vs veh, CCNY / RFU, UFL1 / Fold change vs veh, UFL1 / RFU, COG3 / Fold change vs veh, COG3 / RFU, DIAPH2 / Fold change vs veh, DIAPH2 / RFU, SKA2 / Fold change vs veh, SKA2 / RFU, AFF3 / Fold change vs veh, AFF3 / RFU, LMF1 / Fold change vs veh, LMF1 / RFU, IPO11 / Fold change vs veh, IPO11 / RFU, DFFB / Fold change vs veh, DFFB / RFU, FOXP1 / Fold change vs veh, FOXP1 / RFU, CARD8 / Fold change vs veh, CARD8 / RFU, STRN3 / Fold change vs veh, STRN3 / RFU, ADK / Fold change vs veh, ADK / RFU, RASSF2 / Fold change vs veh, RASSF2 / RFU, WIPF1 / Fold change vs veh, WIPF1 / RFU, LARP1B / Fold change vs veh, LARP1B / RFU, RASA1 / Fold change vs veh, RASA1 / RFU, RB1 / Fold change vs veh, RB1 / RFU, PPFIA1 / Fold change vs veh, PPFIA1 / RFU, MAT2A / Fold change vs veh, MAT2A / RFU, CCT5 / Fold change vs veh, CCT5 / RFU, WDR92 / Fold change vs veh, WDR92 / RFU, CUX1 / Fold change vs veh, CUX1 / RFU, TTC7A / Fold change vs veh, TTC7A / RFU, TMEM135 / Fold change vs veh, TMEM135 / RFU, DEPTOR / Fold change vs veh, DEPTOR / RFU, CPM / Fold change vs veh, CPM / RFU, DNAJB6 / Fold change vs veh, DNAJB6 / RFU, CACNA2D3 / Fold change vs veh, CACNA2D3 / RFU, DTX4 / Fold change vs veh, DTX4 / RFU, TFCP2 / Fold change vs veh, TFCP2 / RFU, GMCL1 /// GMCL1P1 / Fold change vs veh, GMCL1 /// GMCL1P1 / RFU, AEBP2 / Fold change vs veh, AEBP2 / RFU, SNHG1 /// SNORD22 /// SNORD25 /// SNORD26 /// SNORD27 /// SNORD28 /// SNORD29 /// SNORD31 / Fold change vs veh, SNHG1 /// SNORD22 /// SNORD25 /// SNORD26 /// SNORD27 /// SNORD28 /// SNORD29 /// SNORD31 / Fold change (Aza/veh), C12orf56 (ProbeSet 11735607_a_at) / Fold change (ACY-1035/veh), C12orf56 (ProbeSet 11735607_a_at) / Fold change (Aza/veh), FGFR1OP (ProbeSet 11751329_s_at) / Fold change (ACY-1035/veh), FGFR1OP (ProbeSet 11751329_s_at) / Fold change (Aza/veh), VPS36 (ProbeSet 11739960_a_at) / Fold change (ACY-1035/veh), VPS36 (ProbeSet 11739960_a_at) / RFU SYPL1 (11715823_x_at) / Fold change /veh SYPL1 (11715823_x_at) / RFU IGFBP7 (11715501_s_at) / Fold change /veh IGFBP7 (11715501_s_at) / RFU REEP3 (11722064_at) / Fold change /veh REEP3 (11722064_at) / RFU IGLL1 (11728026_x_at) / Fold change /veh IGLL1 (11728026_x_at): dose or concentration left out as unconfirmed", "details": "ProbeSet 11724877_a_at; LIST D", "data": [{"smiles": "Nc1ccc(-c2cccs2)cc1NC(=O)c1ccc2c(c1)cc(C1CC1)n2CCN1CCOCC1", "note": "[ACY-1035]", "values": [{"measurement": "Fold change vs veh, AEBP2", "result": 1.03}]}]}
